The source of these data is patent US8410094B2, “Amide compounds, their pharmaceutical compositions, their preparation method and their uses” (Shanghai Institute of Materia Medica, Chinese Academy of …, priority 2008, dated 2013).

What is called IC50 is the concentration needed to halve the response being measured. What is called inhibition is how much of the control response was suppressed.

The test concerns the target T1, CCR5 (Homo sapiens, UniProt P51681).
T1 construct: expressed in transfected cells
The test is described as follows: Inhibition of CCR5: [35S]GTPγS binding assays (filtration, SPA-WGA) and calcium influx assay, 10 nM RANTES, CHO-CCR5. It counts as biochemical. As to conditions: for IC50: inhibition of GTPγS binding induced by 10 nM RANTES, CHO-CCR5; for inhibition at 0.03 µM: compound at 30 nM, read-out: inhibition against CCR5 @30 nM; for inhibition at 0.03 µM / inhibition at 0.3 µM: 10 nM RANTES; for inhibition at 0.3 µM: compound at 300 nM, read-out: inhibition against CCR5 @300 nM. On the procedure:
CCR5 belongs to G-Protein-Coupled Receptor (GPCR) family. The developing technology of GPCR-based drugs have been well-developed, among them, the experimental techniques such as ligand-receptor binding assay, GTPγS binding assay and Ca^2+ flux assay have been widely used in drug-screening related to chemokine receptors. The inhibitory activities of the compounds according to the present invention against CCR5 are measured by three methods, i.e., [^35S]GTPγS filter binding assay, SPA-WGA-based [^35S]GTPγS binding assay and calcium influx assay. At the same time, the antiviral activities in cell of the compounds according to the present invention are evaluated by using two kinds HIV-1 subtypes: H4DA5 cell model and PBMC system virus replication model.
A. [^35S]GTPγS Binding Assay
After binding with an agonist, CCR5 experiences a conformation change such that CCR5 interacts with G protein so as to active the G protein. G protein is a tripolymer composed of α-subunit and βγ-subunit. Since the ability of α-subunit binding to GTP depends on the interaction of CCR5 with the agonist, the ability of an agonist for activating CCR5 can be reflected by determining the amount of GTP binding to α-subunit. In a GTPγS binding assay, a ^35S-labeled GTP analogue GTPγS, which can bind with an activated α-subunit without being hydrolyzed, is used to replace GTP in order for eliminating the defect that the amount of GTP binding to G protein can not exactly reflect the activation of CCR5 due to the hydrolysis of GTO by GTPase and for convenience of detection. So, α-subunit binds with GDP when CCR5 is not activated, and after the activation of CCR5, α-subunit binds with GTPγS such that GTPγS irreversible binds to α-subunit. Therefore, the amount of [^35S]-GTPγS binding to α-subunit could reflect the level of CCR5 activated by an agonist. The ability of the agonist for activating CCR5 will decrease when an antagonist is added.
Such experiment has been referred to as GTPγS filtration assay in which [^35S]-GTPγS bound with the free G protein could be separated by membrane filtration.
Alternatively, SPA (Scintillation Proximity Assay) technique can be used to detect the [^35S]-GTPγS bound to G protein, which is called SPA-WGA-based [35S]GTPγS binding assay. The principle of SPA technique is as follows. Sub-atomic particles released during the decay of radioactive atoms, for example β-ray (electron), can excite microspheres at a sufficiently close distance to emit light so as to be detected by a Scintillation Counter. In an aqueous solution, most of the energy of these rays is absorbed by the solvent, and the traveling distance of these rays is limited.
The activation of G protein by CCR5 is determined by the following experiments.
CHO (Chinese hamster ovary cell) permanent cell line expressing CCR5 (CHO-CCR5) (a cell line constructed by Shanghai Targetdrug Ltd.) was lysed with a lysis buffer (5 mM Tris-HCl, pH 7.5, 5 mM EDTA and 5 mM EGTA) and then centrifugated at 15,000×g for 10 min to obtain cell membrane. After the cell membrane was resuspended in a reaction buffer (5 mM Tris-HCl, pH 7.5, 5 mM MgCl2, 1 mM EGTA, 100 mM NaCl), the protein concentration was determined using Bioford Protein Assay Kit manufactured by Bio-Rad Laboratories Inc. Subsequently, GTPγS binding assay was performed in the reaction buffer, wherein the reaction system was 100 μL containing 10 μg membrane protein, 40 μM GDP and 0.5 nM [^35S]-GTPγS (1200 Ci/mmol). After the compound to be tested (the compound was first dissolved in DMSO and then diluted in gradient with the reaction buffer according to the specific situation, wherein the final concentration of DMSO was 1% (v/v) in the whole reaction system) was added and shaken to mix homogeneously, the reaction tube was incubated at 30° C. for 1 hour. After the reaction finished, the tube was placed on ice, and the reaction mixture was diluted with PBS to quench the reaction and filtered under reduced pressure with a GF/C filter membrane. […]
Background: GTPγS is a poorly hydrolysed GTP analogue; its binding reports G protein activation.

T1 sequence (P51681 whole entry): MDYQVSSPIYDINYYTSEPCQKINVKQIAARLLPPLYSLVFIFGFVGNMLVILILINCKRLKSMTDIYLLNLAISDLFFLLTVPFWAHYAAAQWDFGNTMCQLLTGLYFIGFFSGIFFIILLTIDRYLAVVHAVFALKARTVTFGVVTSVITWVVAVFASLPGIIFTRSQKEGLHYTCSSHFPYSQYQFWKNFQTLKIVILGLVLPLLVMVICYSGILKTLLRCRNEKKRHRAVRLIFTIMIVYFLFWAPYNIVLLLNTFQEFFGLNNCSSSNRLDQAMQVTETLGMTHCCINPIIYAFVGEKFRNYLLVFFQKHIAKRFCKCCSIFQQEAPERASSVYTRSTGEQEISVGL

With `CC(=O)N1CCC(C(=O)N(CCCN2[C@@H]3CC[C@H]2C[C@H](NC(=O)Cc2ccc([N+](=O)[O-])c4ccccc24)C3)c2ccc(C)c(Cl)c2)CC1` [Compound 7s, 1-acetyl-N-(3-chloro-4-methylphenyl)-N-(3-(3-exo-(2-(4-nitro-1-naphthyl)acetamido)-8-azabicyclo[3.2.1]oct-8-yl)propyl)-4-piperidinylcarboxamide], the 50% inhibitory concentration (IC50) amounted to 3.34 nM.

With `CC(=O)N1CCC(C(=O)N(CCCN2C3CCC2CC(NC(=O)c2cccnc2)C3)c2ccc(C)c(Cl)c2)CC1` (stereo not drawn) [Compound 7t, 1-acetyl-N-(3-chloro-4-methylphenyl)-N-(3-(3-exo-nicotinamido-8-azabicyclo[3.2.1]oct-8-yl)propyl)-4-piperidinylcarboxamide], the inhibition at 0.03 µM came to 3.36% and the inhibition at 0.3 µM turned out to be 15.6%.

As to `CC(=O)N1CCC(C(=O)N(CCCN2C3CCC2CC(NC(=O)c2ccc(C(F)(F)F)cc2)C3)c2ccc(C)c(Cl)c2)CC1` (stereo not drawn) [Compound 7u, 1-acetyl-N-(3-chloro-4-methylphenyl)-N-(3-(3-exo-p-trifluoromethylbenzoylamido-8-azabicyclo[3.2.1]oct-8-yl)propyl)-4-piperidinylcarboxamide], the inhibition at 0.03 µM was found to be 26.5% and the inhibition at 0.3 µM was 96.3%.

As to `CC(=O)N1CCC(C(=O)N(CCCN2C3CCC2CC(NC(=O)CCc2cccnc2)C3)c2ccc(C)c(Cl)c2)CC1` (stereo not drawn) [Compound 7v, 1-acetyl-N-(3-chloro-4-methylphenyl)-N-(3-(3-exo-(3-(3-pyridyl)propionamido)-8-azabicyclo[3.2.1]oct-8-yl)propyl)-4-piperidinylcarboxamide], the inhibition at 0.03 µM amounted to 17.5% and the inhibition at 0.3 µM turned out to be 76.7%.

Take `CC(=O)N1CCC(C(=O)N(CCCN2[C@@H]3CC[C@H]2C[C@H](NC(=O)COc2ccc4ccccc4c2)C3)c2ccc(C)c(Cl)c2)CC1` [Compound 7w, 1-acetyl-N-(3-chloro-4-methylphenyl)-N-(3-(3-exo-(2-(2-naphthoxy)acetamido)-8-azabicyclo[3.2.1]oct-8-yl)propyl)-4-piperidinylcarboxamide]: the half-inhibitory concentration (IC50) is 18.1 nM.

For the molecule `CC(=O)N1CCC(C(=O)N(CCCN2[C@@H]3CC[C@H]2C[C@H](NC(=O)COc2ccc(Cl)cc2)C3)c2ccc(C)c(Cl)c2)CC1` [Compound 7x, 1-acetyl-N-(3-chloro-4-methylphenyl)-N-(3-(3-exo-(2-p-chlorophenoxy)acetamido-8-azabicyclo[3.2.1]oct-8-yl)propyl)-4-piperidinylcarboxamide], the IC50 amounted to 27.3 nM.

For `CC(=O)N1CCC(C(=O)N(CCCN2[C@@H]3CC[C@H]2C[C@H](NC(=O)COc2ccc(Cl)cc2Cl)C3)c2ccc(C)c(Cl)c2)CC1` [Compound 7y, 1-acetyl-N-(3-chloro-4-methylphenyl)-N-(3-(3-exo-(2-(2,4-dichlorophenoxy)acetamido)-8-azabicyclo[3.2.1]oct-8-yl)propyl)-4-piperidinylcarboxamide], the IC50 is 24.6 nM.

Regarding `CNS(=O)(=O)c1ccc(CC(=O)N[C@@H]2C[C@H]3CC[C@@H](C2)N3CCCN(C(=O)C2CCN(C(C)=O)CC2)c2ccc(C)c(Cl)c2)cc1` [Compound 7z, 1-acetyl-N-(3-chloro-4-methylphenyl)-N-(3-(3-exo-(2-(4-(N-methylsulphonyl)phenyl)acetamido)-8-azabicyclo[3.2.1]oct-8-yl)propyl)-4-piperidinylcarboxamide], the IC50 was 17.3 nM.

On to `CC(=O)N1CCC(C(=O)N(CCCN2[C@@H]3CC[C@H]2C[C@H](NS(C)(=O)=O)C3)c2ccc(C)c(Cl)c2)CC1` [Compound 9a, 1-acetyl-N-(3-chloro-4-methylphenyl)-N-(3-(3-exo-(methylsulfonyl amido)-8-azabicyclo[3.2.1]oct-8-yl)propyl)-4-piperidinylcarboxamide], for which the IC50 was determined as 20.1 nM.

On to `CC(=O)N1CCC(C(=O)N(CCCN2[C@@H]3CC[C@H]2C[C@H](NS(=O)(=O)c2ccc([N+](=O)[O-])cc2)C3)c2ccc(C)c(Cl)c2)CC1` [Compound 9c, 1-acetyl-N-(3-chloro-4-methylphenyl)-N-(3-(3-exo-(4-nitrophenylsulfonylamido)-8-azabicyclo[3.2.1]oct-8-yl)propyl)-4-piperidinylcarboxamide], for which the IC50 worked out at 3.3 nM.

Turning to `CC(=O)N1CCC(C(=O)N(CCCN2[C@@H]3CC[C@H]2C[C@H](NS(=O)(=O)c2cccc([N+](=O)[O-])c2)C3)c2ccc(C)c(Cl)c2)CC1` [Compound 9d, 1-acetyl-N-(3-chloro-4-methylphenyl)-N-(3-(3-exo-(3-nitrophenylsulfamide)-8-azabicyclo[3.2.1]oct-8-yl)propyl)-4-piperidinylcarboxamide], the IC50 amounted to 2.59 nM.

For the molecule `CC(=O)N1CCC(C(=O)N(CCCN2[C@@H]3CC[C@H]2C[C@H](NS(=O)(=O)Cc2ccccc2)C3)c2ccc(C)c(Cl)c2)CC1` [Compound 9e, 1-acetyl-N-(3-chloro-4-methylphenyl)-N-(3-(3-exo-(phenylmethylsulfonylamido)-8-azabicyclo[3.2.1]oct-8-yl)propyl)-4-piperidinylcarboxamide], the IC50 turned out to be 7.4 nM.

Regarding `CC(=O)N1CCC(C(=O)N(CCCN2[C@@H]3CC[C@H]2C[C@H](NS(=O)(=O)c2cccs2)C3)c2ccc(C)c(Cl)c2)CC1` [Compound 9f, 1-acetyl-N-(3-chloro-4-methylphenyl)-N-(3-(3-exo-(thienyl-2-sulfonylamido)-8-azabicyclo[3.2.1]oct-8-yl)propyl)-4-piperidinylcarboxamide], the half-maximal inhibitory concentration (IC50) was 2.53 nM.

For `COc1ccc(NC(=O)NC2CC3CCC(C2)N3CCCN(C(=O)C2CCN(C(C)=O)CC2)c2ccc(C)c(Cl)c2)cc1` (stereo not drawn) [Compound 10a, 1-acetyl-N-(3-chloro-4-methylphenyl)-N-(3-(3-exo-(3-(4-methoxylphenyl)ureylene)-8-azabicyclo[3.2.1]oct-8-yl)propyl)-4-piperidinylcarboxamide], under “class by inhibition at 30 nM or 300 nM”, the “inhibition against CCR5 (class symbol in IC50 column)” value was “++ (the compound at 300 nM has an inhibition against CCR5 of more thant 50% at 300 nM)”.

`CC(=O)N1CCC(C(=O)N(CCCN2C3CCC2CC(NC(=O)Nc2ccc(Cl)c(C(F)(F)F)c2)C3)c2ccc(C)c(Cl)c2)CC1` (stereo not shown) [Compound 10b, 1-acetyl-N-(3-(3-(3-(4-chloro-3-(trifluoromethyl)phenyl)ureylene)-8-azabicyclo[3.2.1]oct-8-yl)propyl)-N-(3-chloro-4-methylphenyl)-4-piperidinylcarboxamide]: the IC50 came out at 28.7 nM.

In the case of `CC(=O)N1CCC(C(=O)N(CCCN2C3CCC2CC(NC(=O)Nc2ccccc2)C3)c2ccc(C)c(Cl)c2)CC1` (stereo not shown) [Compound 10c, 1-acetyl-N-(3-(3-(3-phenylureylene)-8-azabicyclo[3.2.1]oct-8-yl)propyl)-N-(3-chloro-4-methylphenyl)-4-piperidinylcarboxamide], the inhibition at 0.03 µM turned out to be 33.5% and the inhibition at 0.3 µM was 41.9%.

Take `CC(=O)N1CCC(C(=O)N(CCCN2C3CCC2CC(n2c(C)nnc2C(C)C)C3)c2ccc(C)c(Cl)c2)CC1` (stereo not drawn) [Compound 11, 1-acetyl-N-(3-chloro-4-methylphenyl)-N-(3-(3-exo-(3-isopropyl-5-methyl-4-hydro-1,2,4-triazol-4-yl)-8-azabicyclo[3.2.1]oct-8-yl)propyl)-4-piperidinylcarboxamide]: the inhibition at 0.03 µM amounted to 48.8% and the inhibition at 0.3 µM amounted to 98.4%.
